One data set concerns Strain 632. Briefly: Antifungal activity against fluconazole-resistant strain. It is filed as cell-based. To be noted: Candida albicans, 632, read-out: MIC80 Strain 632.
For a further data set, the system named is Strain CaR. The data set is described as above. The following applies: Candida albicans, read-out: MIC80 Strain CaR. It is filed as cell-based.
The test system of a further data set is C. alb (SC5314). Description: In vitro antifungal assay. The following applies: Candida albicans, SC5314, read-out: MIC80 C. alb (SC5314). It is filed as cell-based.
For the next data set, the system named is MRC-5 cells. Briefly: Cytotoxicity assay on normal cells. Format: cell-based, human. To be noted: Homo sapiens, MRC5, 72 h, read-out: IC50 on MRC-5 cell lines.
The subject of a further data set is Strain 17#. Description: Antifungal activity against fluconazole-resistant strain. The following applies: Candida albicans, read-out: MIC80 Strain 17#. It is filed as cell-based.
A further data set deals with Strain 901. Described as above. It is filed as cell-based. To be noted: Candida albicans, 901, read-out: MIC80 Strain 901.
Data set [1] has as its system C. alb (5314),C. par, C. gla, C. kru and C. neo. Description: In vitro antifungal assay, span over the five tested species. It is filed as cell-based. The following applies: range over C. alb (5314).
The test system of the next data set is Strain 904. Description: Antifungal activity against fluconazole-resistant strain. It is filed as cell-based, Candida albicans. To be noted: for MIC80: Candida albicans, 904, read-out: MIC80 Strain 904.
The subject of the next data set is C. neo. Description: In vitro antifungal assay. Format: cell-based. To be noted: Cryptococcus neoformans, read-out: MIC80 C. neo.
The test system of data set [2] is five fluconazole-resistant strains obtained from clinical isolation. Briefly: Antifungal activity, span over five fluconazole-resistant strains. It is filed as cell-based, Candida albicans.
A further data set can be described thus: Plasma stability assay. The following applies: male, SD, rat.
For data set [3], the system named is ERG11 and CDR1 of azole-resistant strain 904. Briefly: RT-PCR expression of resistant genes ERG11 and CDR1. To be noted: 0.25 μg mL^−1, strain 904, RT-PCR. It is filed as cell-based, Candida albicans.
The subject of data set [4] is azole-resistant strain 904. Briefly: Yeast-to-hypha morphological transition. To be noted: 0.25 μg mL^−1, 5 h. It is filed as cell-based, Candida albicans.
The test system of data set [5] is C. alb SC5314. Briefly: Morphological observation of fungal cells by TEM. Format: cell-based, Candida albicans. The following applies: 2 μg mL^−1, 24 h.
Data set [6] deals with C. alb SC5314. Description: GC-MS analysis of sterol composition. Format: cell-based, Candida albicans. To be noted: 0.03 μg mL^−1, 24 h.
A short description of data set [7]: Metabolic stability assay of liver microsomes. It is filed as in vitro ADME. To be noted: mouse. In general terms: Liver microsomes are a subcellular fraction often used to study metabolism.
In data set [8] the test system is strain 904, fluconazole-resistant strain of C. albicans. Description: Minimum fungicidal concentration. The following applies: Candida albicans, read-out: MFC against C. alb. It is filed as cell-based, Candida albicans.
In data set [9] the test system is azole-resistant strain 904. Description: In vivo antifungal potency, mouse infection model, kidney fungal burden. The following applies: mice, tail vein infection with strain 904, intraperitoneal, day 5.

≈ marks a conversion by molar mass, not a printed value. Bounds are passed on as bounds.

Consider `O=C(Nc1cccc2ccccc12)c1ccc(COC(Cn2ccnc2)c2ccc(Cl)cc2Cl)cc1` (centres unmarked) [A13, 4-((1-(2,4-Dichlorophenyl)-2-(1H-imidazol-1-yl)ethoxy)methyl)-N-(naphthalen-1-yl)benzamide], for which the MIC80 (commonly an inhibitory concentration at the 80% level, which refers to growth in some studies and to a panel of isolates in others) in the data set with Strain 632 came to 8 µg/mL (≈ 15.5 µM); in the data set with Strain CaR, 128 µg/mL (≈ 248 µM); in the data set on C. alb (SC5314), 8 µg/mL (≈ 15.5 µM); with Strain 17#, 64 µg/mL (≈ 124 µM); in the data set with Strain 901, 1 µg/mL (≈ 1.94 µM); in the data set with Strain 904 it was 1 µg/mL (≈ 1.94 µM). Also, in the data set on C. neo, the MIC80 was found to be 64 µg/mL (≈ 124 µM). Besides, the IC50 (usually the concentration at which inhibition is half-maximal) in the data set with MRC-5 cells was above 100 µM. Moreover, in data set [1], the “MIC80 / MIC span over the five tested fungi” value was 2 to 64 µg/mL.

Regarding `O=C(Nc1ccc2ccccc2c1)c1ccc(COC(Cn2ccnc2)c2ccc(Cl)cc2Cl)cc1` (centres unmarked) [A14, 4-((1-(2,4-Dichlorophenyl)-2-(1H-imidazol-1-yl)ethoxy)methyl)-N-(naphthalen-2-yl)benzamide], the MIC80 in the data set on Strain 632 came out at 16 µg/mL (≈ 31 µM); in the data set on Strain CaR, 8 µg/mL (≈ 15.5 µM); in the data set with C. alb (SC5314) it was 32 µg/mL (≈ 62 µM); with Strain 17#, 64 µg/mL (≈ 124 µM); in the data set on Strain 901, 16 µg/mL (≈ 31 µM); with Strain 904, 16 µg/mL (≈ 31 µM). Besides, the MIC80 with C. neo is 32 µg/mL (≈ 62 µM). The IC50 with MRC-5 cells was above 100 µM. For the same molecule, in data set [1], the “MIC80 / MIC span over the five tested fungi” value was in the range of 2 to 64 µg/mL.

Consider `OC(Cn1cncn1)(Cn1cncn1)c1ccc(F)cc1F` [Fluconazole, fluconazole, reference compound], for which the “Antifungal activity against the tested resistant strains (in words)” value in data set [2] is “completely inactive”. The MIC80 in the data set with Strain 632 is above 128 µg/mL; in the data set with Strain CaR, above 128 µg/mL; in the data set with C. alb (SC5314), 4 µg/mL (≈ 13.1 µM); in the data set on Strain 17#, above 128 µg/mL; in the data set with Strain 901 it was above 128 µg/mL; in the data set with Strain 904 it was above 128 µg/mL. The MIC80 in the data set with C. neo amounted to 8 µg/mL (≈ 26.1 µM). In addition, the half-life (commonly how long it takes for the measured level to halve) in the data set “Plasma stability assay” is above 360 min; in data set [7], above 120 min. Further, in “Plasma stability assay”, the amount remaining at 3 h is 102%. Further, in data set [3], the “Expression of ERG11 and CDR1” value is “overexpression of drug resistance gene ERG11 and CDR1”. Also, the IC50 with MRC-5 cells is above 100 µM. Further, in data set [4], the “Morphological transition from yeast to hyphae” value was “did not inhibit the morphological transition”. The “Fungal cell morphology (TEM)” value in the data set with C. alb SC5314 [5] is recorded as “the cell membrane was damaged”. Also, the “Effect on ergosterol biosynthesis / sterol composition” value in the data set on C. alb SC5314 [6] is given as “effectively suppresses ergosterol biosynthesis”. The microsomal CLint (usually a measure of how fast metabolising enzymes remove a compound, apart from limits set by blood flow) in data set [7] was determined as 2 µL/min/mg. For the same molecule, the MFC (as a rule, the smallest concentration meeting the test's criterion for killing the fungus) in data set [8] was above 128 µg/mL. The MIC (in general, the lowest concentration that inhibits growth of the organism) in the data set with Strain 904 (Candida albicans, 904, read-out: MIC against C. alb) was above 128 µg/mL. Also, the “Efficacy in vivo (CFU fungal burden in kidneys)” value in data set [9] is reported as “ineffective”.

Source of the values: article PMC11962866 (RSC Advances, 2025).
